In patent publication US20200316064A1, “CYCLIN-DEPENDENT KINASE 2 BIOMARKERS AND USES THEREOF” (Incyte Corporation, priority 2019, published 2020):

Target: T1, CDK2/Cyclin E1 (Homo sapiens, UniProt P24941)
T1 construct: utilize full-length human CDK2 co-expressed as N-terminal GST-tagged protein; GST (N); purchased Carna 04-165; host or cells: baculovirus expression system
Test: CDK2/Cyclin E1 HTRF enzyme activity assay (Example A)
Format: biochemical
Conditions: 1 mM ATP
Method: CDK2/Cyclin E1 enzyme activity assays utilize full-length human CDK2 co-expressed as N-terminal GST-tagged protein with FLAG-Cyclin E1 in a baculovirus expression system (Carna Product Number 04-165). Assays are conducted in white 384-well polystyrene plates in a final reaction volume of 8 μL. CDK2/Cyclin E1 (0.25 nM) is incubated with compounds (40 nL serially diluted in DMSO) in the presence of ATP (50 μM or 1 mM) and 50 nM ULight™-labeled eIF4E-binding protein 1 (THR37/46) peptide (PerkinElmer) in assay buffer (containing 50 mM HEPES pH 7.5, 1 mM EGTA, 10 mM MgC2, 2 mM DTT, 0.05 mg/mL BSA, and 0.01% Tween 20) for 60 minutes at room temperature. The reactions are stopped by the addition of EDTA and Europium-labeled anti-phospho-4E-BP1 antibody (PerkinElmer), for a final concentration of 15 mM and 1.5 nM, respectively. HTRF signals are read after 1 hour at room temperature on a PHERAstar FS plate reader (BMG Labtech). Data is analyzed with IDBS XLFit and GraphPad Prism 5.0 software using a three or four parameter dose response curve to determine IC50 for each compound.

SMILES: CC1CCCC1N1C(=O)C2(CC2)c2cnc(NC3CCN(S(C)(=O)=O)CC3)nc21 (mixture of isomers) [Example B8, 7′-(2-methylcyclopentyl)-2′-((1-(methylsulfonyl)piperidin-4-yl)amino)spiro[cyclopropane-1,5′-pyrrolo[2,3-d]pyrimidin]-6′(7′H)-one]
- IC50: ≤ 50 nM

SMILES: CCC(C(F)F)N1C(=O)C2(CC2)c2cnc(NC3CCN(S(C)(=O)=O)CC3)nc21 (racemic) [Example B10, 7′-(1,1-difluorobutane-2-yl)-2′-((1-(methylsulfonyl)piperidin-4-yl)amino)spiro[cyclopropane-1,5′-pyrrolo[2,3-d]pyrimidin]-6′(7′H)-one]
- IC50: ≤ 50 nM

SMILES: CCn1cnc(S(=O)(=O)N2CCC(Nc3ncc4c(n3)N(c3cc(F)ccc3Cl)C(=O)C43CC3)CC2)c1 [Example B19, 7′-(2-chloro-5-fluorophenyl)-2′-((1-((1-ethyl-1H-imidazol-4-yl)sulfonyl)piperidin-4-yl)amino)spiro[cyclopropane-1,5′-pyrrolo[2,3-d]pyrimidin]-6′(7′H)-one]
- IC50: ≤ 50 nM

SMILES: C[C@@H](C1CC1)N1C(=O)C2(CC2)c2cnc(NC3CCN(S(=O)(=O)c4ccc(=O)[nH]c4)CC3)nc21 [Example B15, (S)-7′-(1-cyclopropylethyl)-2′-((1-((6-oxo-1,6-dihydropyridin-3-yl)sulfonyl)piperidin-4-yl)amino)spiro[cyclopropane-1,5′-pyrrolo[2,3-d]pyrimidin]-6′(7′H)-one]
- IC50: ≤ 50 nM

SMILES: C[C@@H](C1CC1)N1C(=O)C2(CC2)c2cnc(NC3CCN(S(=O)(=O)c4ncc[nH]4)CC3)nc21 [Example B14, (S)-2′-((1-((1H-imidazol-2-yl)sulfonyl)piperidin-4-yl)amino)-7′-(1-cyclopropylethyl)spiro[cyclopropane-1,5′-pyrrolo[2,3-d]pyrimidin]-6′(7′H)-one]
- IC50: ≤ 50 nM

SMILES: Cc1c(N2C(=O)C3(CC3)c3cnc(NC4CCN(S(C)(=O)=O)CC4)nc32)cnn1C [Example B11, 7′-(1,5-dimethyl-1H-pyrazol-4-yl)-2′-((1-(methylsulfonyl)piperidin-4-yl)amino)spiro[cyclopropane-1,5′-pyrrolo[2,3-d]pyrimidin]-6′(7H)-one]
- IC50: 50 to 100 nM

SMILES: O=C1N(C2CCCC2)c2nc(NC3CCN(S(=O)(=O)C4CCOCC4)CC3)ncc2C12CC2 [Example B4, 7′-cyclopentyl-2′-((1-((tetrahydro-2H-pyran-4-yl)sulfonyl)piperidin-4-yl)amino)spiro[cyclopropane-1,5′-pyrrolo[2,3-d]pyrimidin]-6′(7′H)-one]
- IC50: 100 to 500 nM

SMILES: Cn1cc(S(=O)(=O)N2CCC(Nc3ncc4c(n3)N([C@@H]3CCC[C@@H](O)C3)C(=O)C43CC3)CC2)cn1 [Example B12, 7′-((1R,3R)-3-hydroxycyclohexyl)-2′-((1-((1-methyl-1H-pyrazol-4-yl)sulfonyl)piperidin-4-yl)amino)spiro[cyclopropane-1,5′-pyrrolo[2,3-d]pyrimidin]-6′(7′H)-one]
- IC50: ≤ 50 nM

SMILES: CC1(C)Cc2cnc(NC3CCN(S(C)(=O)=O)CC3)nc2N(C2CCOC2)C1=O (racemic) [Example A6, 6,6-dimethyl-2-((1-(methylsulfonyl)piperidin-4-yl)amino)-8-(tetrahydrofuran-3-yl)-5,8-dihydropyrido[2,3-d]pyrimidin-7(6H)-one]
- IC50: 100 to 500 nM

SMILES: O=C1N([C@@H]2CCC[C@@H](O)C2)c2nc(NC3CCN(S(=O)(=O)c4cccc(N5CCC5)n4)CC3)ncc2C12CC2 [Example B13, 2′-((1-((6-(azetidin-1-yl)pyridin-2-yl)sulfonyl)piperidin-4-yl)amino)-7′-((1R,3R)-3-hydroxycyclohexyl)spiro[cyclopropane-1,5′-pyrrolo[2,3-d]pyrimidin]-6′(7′H)-one]
- IC50: ≤ 50 nM

SMILES: CS(=O)(=O)N1CCC(Nc2ncc3c(n2)N(C2CCCC2)C(=O)C32CC2)CC1 [Example B2, 7′-cyclopentyl-2′-((1-(methylsulfonyl)piperidin-4-yl)amino)spiro[cyclopropane-1,5′-pyrrolo[2,3-d]pyrimidin]-6′(7′H)-one]
- IC50: 100 to 500 nM

SMILES: Cn1cc(S(=O)(=O)N2CCC(Nc3ncc4c(n3)N(C3CCCC3)C(=O)C43CC3)CC2)cn1 [Example B7, 7′-cyclopentyl-2′-((1-((1-methyl-1H-pyrazol-4-yl)sulfonyl)piperidin-4-yl)amino)spiro[cyclopropane-1,5′-pyrrolo[2,3-d]pyrimidin]-6′(7′H)-one]
- IC50: ≤ 50 nM

SMILES: O=C1N(C2CCCC2)c2nc(NC3CCN(S(=O)(=O)c4cccnc4)CC3)ncc2C12CC2 [Example B5, 7′-cyclopentyl-2′-((1-(pyridin-3-ylsulfonyl)piperidin-4-yl)amino)spiro[cyclopropane-1,5′-pyrrolo[2,3-d]pyrimidin]-6′(7′H)-one]
- IC50: ≤ 50 nM

SMILES: O=C1N(C2CCCC2)c2nc(NC3CCN(S(=O)(=O)C4CC4)CC3)ncc2C12CC2 [Example B3, 7′-cyclopentyl-2′-((1-(cyclopropylsulfonyl)piperidin-4-yl)amino)spiro[cyclopropane-1,5′-pyrrolo[2,3-d]pyrimidin]-6′(7′H)-one]
- IC50: ≤ 50 nM

SMILES: CCC(C(F)F)N1C(=O)C(C)(C)Cc2cnc(NC3CCN(S(C)(=O)=O)CC3)nc21 (racemic) [Example A4, 8-(1,1-difluorobutane-2-yl)-6,6-dimethyl-2-((1-(methylsulfonyl)piperidin-4-yl)amino)-5,8-dihydropyrido[2,3-d]pyrimidin-7(6H)-one]
- IC50: 50 to 100 nM

SMILES: Cn1nccc1CN1C(=O)C(C)(C)Cc2cnc(NC3CCN(S(C)(=O)=O)CC3)nc21 [Example A5, 6,6-dimethyl-8-((1-methyl-1H-pyrazol-5-yl)methyl)-2-((1-(methylsulfonyl)piperidin-4-yl)amino)-5,8-dihydropyrido[2,3-d]pyrimidin-7(6H)-one]
- IC50: 100 to 500 nM

SMILES: CCN1CC(n2cc(S(=O)(=O)N3CCC(Nc4ncc5c(n4)N([C@@H](C)C4CC4)C(=O)C54CC4)CC3)cn2)C1 [Example B16, (S)-7′-(1-cyclopropylethyl)-2′-((1-((1-(1-ethylazetidin-3-yl)-1H-pyrazol-4-yl)sulfonyl)piperidin-4-yl)amino)spiro[cyclopropane-1,5′-pyrrolo[2,3-d]pyrimidin]-6′(7′H)-one]
- IC50: ≤ 50 nM

SMILES: Cc1ccccc1N1C(=O)C2(CC2)c2cnc(NC3CCN(S(C)(=O)=O)CC3)nc21 [Example B9, 2′-((1-(methylsulfonyl)piperidin-4-yl)amino)-7′-(o-tolyl)spiro[cyclopropane-1,5′-pyrrolo[2,3-d]pyrimidin]-6′(7′H)-one]
- IC50: 100 to 500 nM

SMILES: CC1(C)Cc2cnc(NC3CCN(S(C)(=O)=O)CC3)nc2N(c2ccccc2)C1=O [Example A3, 6,6-dimethyl-2-((1-(methylsulfonyl)piperidin-4-yl)amino)-8-phenyl-5,8-dihydropyrido[2,3-d]pyrimidin-7(6H)-one]
- IC50: 100 to 500 nM

SMILES: O=C1N(c2cc3c(cc2Cl)CNCC3)c2nc(NC3CCN(S(=O)(=O)c4ncc[nH]4)CC3)ncc2C12CC2 [Example B18, 2′-((1-((1H-imidazol-2-yl)sulfonyl)piperidin-4-yl)amino)-7′-(7-chloro-1,2,3,4-tetrahydroisoquinolin-6-yl)spiro[cyclopropane-1,5′-pyrrolo[2,3-d]pyrimidin]-6′(7′H)-one]
- IC50: ≤ 50 nM

SMILES: CC1(C)Cc2cnc(NC3CCN(S(C)(=O)=O)CC3)nc2N(C2CCCC2)C1=O [Example A2, 8-cyclopentyl-6,6-dimethyl-2-((1-(methylsulfonyl)piperidin-4-yl)amino)-5,8-dihydropyrido[2,3-d]pyrimidin-7(6H)-one]
- IC50: ≤ 50 nM

SMILES: CC1(C)Cc2cnc(Nc3ccc(S(N)(=O)=O)cc3)nc2N(C2CCCC2)C1=O [Example A1, 4-((8-cyclopentyl-6,6-dimethyl-7-oxo-5,6,7,8-tetrahydropyrido[2,3-d]pyrimidin-2-yl)amino)benzenesulfonamide]
- IC50: ≤ 50 nM

SMILES: CC1CC(Nc2ncc3c(n2)N(C2CCCC2)C(=O)C32CC2)CCN1S(C)(=O)=O (stereo not shown) [Example B1, 7′-cyclopentyl-2′-((2-methyl-1-(methylsulfonyl)piperidin-4-yl)amino)spiro[cyclopropane-1,5′-pyrrolo[2,3-d]pyrimidin]-6′(7′H)-one]
- IC50: 100 to 500 nM

SMILES: O=C1N(C2CCCC2)c2nc(NC3CCN(S(=O)(=O)c4ccc(Cl)cc4)CC3)ncc2C12CC2 [Example B6, 2′-((1-((4-chlorophenyl)sulfonyl)piperidin-4-yl)amino)-7′-cyclopentylspiro[cyclopropane-1,5′-pyrrolo[2,3-d]pyrimidin]-6′(7′H)-one]
- IC50: 50 to 100 nM

SMILES: C[C@@]1(O)CCC[C@H]1N1C(=O)C2(CC2)c2cnc(NC3CCN(S(=O)(=O)c4ncc[nH]4)CC3)nc21 (relative stereo) [Example B17, 2′-((1-((1H-imidazol-2-yl)sulfonyl)piperidin-4-yl)amino)-7′-((trans)-2-hydroxy-2-methylcyclopentyl)spiro[cyclopropane-1,5′-pyrrolo[2,3-d]pyrimidin]-6′(7′H)-one]
- IC50: ≤ 50 nM
